The values below come from ChEMBL document CHEMBL1201862, “PubChem BioAssay data set” (2004).

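Each compound was tested at five concentrations against cells in 96-well plates for 48 hours. GI50: concentration for 50% inhibition of growth.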 Active and inactive are the calls of the source. Cut-off read from the data, not from the text of the source: active = GI50 up to about 1.1 µM and inactive = higher.

Some test systems named below: A549; OVCAR-5; DU-145; SF-295; NCI/ADR-RES; OVCAR-4; HCT-15; CAKI-1; Hs-578T; EKVX; SR; NCI-H23; A498; SW-620; COLO 205; K562; SNB-19; UACC-257.
Holding throughout (assay): NCI anticancer screen, dose series, 48 h

As to `Cc1[nH]c(/C=C2\C(=O)Nc3ccccc32)c(C)c1CCC(=O)O` [ORANTINIB], the GI50 in the assay on A549 was 33.9 µM (inactive); with OVCAR-5, 27.5 µM (inactive); in the assay on DU-145, 31.5 µM (inactive); in the assay on SF-295, 32.5 µM (inactive); in the assay with NCI/ADR-RES it was 37.3 µM (inactive); in the assay with OVCAR-4, 33.6 µM (inactive). In addition, the GI50 in the assay on HCT-15 was 31.4 µM; with CAKI-1, 22.1 µM (inactive); in the assay with Hs-578T, 37.9 µM (inactive); with EKVX it was 28.5 µM (inactive); in the assay on SR, 23.9 µM (inactive); with NCI-H23, 27.7 µM (inactive). Besides, the GI50 with A498 is 55 µM (inactive); in the assay with SW-620 it was 25.7 µM (inactive); in the assay with COLO 205, 20.6 µM (inactive); in the assay on K562 it was 36.4 µM (inactive); with SNB-19, 53.5 µM (inactive); in the assay with UACC-257, 23.7 µM (inactive).
On to `NC(=O)c1ccc(S(=O)(=NS(=O)(=O)c2ccccc2)c2ccc(C(N)=O)cc2)cc1`, for which the GI50 in the assay on A549, in the assay with OVCAR-5, in the assay on DU-145, in the assay on SF-295, in the assay on NCI/ADR-RES and in the assay on OVCAR-4 was > 100 µM (inactive) throughout. Moreover, the GI50 with HCT-15 was over 100 µM; with CAKI-1 it was > 100 µM (inactive); in the assay with Hs-578T it was > 100 µM (inactive); with EKVX it was > 100 µM (inactive); in the assay on SR, > 100 µM (inactive); with NCI-H23, > 100 µM (inactive). Further, the GI50 with A498, in the assay on SW-620, with COLO 205, in the assay on K562, with SNB-19 and with UACC-257 was > 100 µM (inactive) throughout.
For the compound `O=C(OC1=CCN(Br)C1=O)C1=C(O)C(=O)N(Br)C1`, the GI50 in the assay with A549 is 42.9 µM (inactive); with OVCAR-5 it was 21.1 µM (inactive); in the assay on DU-145 it was 53.2 µM (inactive); in the assay with SF-295, 26.9 µM (inactive); with NCI/ADR-RES, > 100 µM (inactive); in the assay with OVCAR-4, 30 µM (inactive). Moreover, the GI50 in the assay on HCT-15 was 57.3 µM; in the assay with CAKI-1, 58.7 µM (inactive); in the assay with Hs-578T it was 27 µM (inactive); with EKVX, 25.1 µM (inactive); with SR, 21.4 µM (inactive); in the assay with NCI-H23, 32.4 µM (inactive). Also, the GI50 is > 100 µM (inactive) with A498; 26.5 µM (inactive) with SW-620; 23.7 µM (inactive) with COLO 205; 29.1 µM (inactive) with K562; 20.2 µM (inactive) in the assay on SNB-19; 26.9 µM (inactive) with UACC-257.
For `CCCCCCCC/C=C\CCCCCCC/C=C1/C[C@](/C=C/C(=O)OC)(CO)OC1=O`, the GI50 is 2.37 µM (inactive) in the assay on A549; 7.46 µM (inactive) in the assay with OVCAR-5; 9.06 µM (inactive) in the assay on DU-145; 2.29 µM (inactive) in the assay with SF-295; 10.4 µM (inactive) with NCI/ADR-RES; 6.58 µM (inactive) in the assay on OVCAR-4. In addition, the GI50 in the assay on HCT-15 was 8.41 µM; with CAKI-1, 1.29 µM (inactive); in the assay on Hs-578T, 0.923 µM (active); with EKVX it was 9.73 µM (inactive); in the assay on SR it was 3.92 µM (inactive); with NCI-H23, 11.2 µM (inactive). Moreover, the GI50 is 8.67 µM (inactive) in the assay with A498; 2.66 µM (inactive) with SW-620; 1.57 µM (inactive) with COLO 205; 0.561 µM (active) in the assay with K562; 7.16 µM (inactive) in the assay on SNB-19; 15.6 µM (inactive) in the assay on UACC-257.
`O=C1CSCc2sccc21`: the GI50 in the assay on A549, in the assay on OVCAR-5, with DU-145, in the assay with SF-295, in the assay on NCI/ADR-RES and with OVCAR-4 was > 100 µM (inactive) each time. Further, the GI50 in the assay on HCT-15 was over 100 µM; in the assay with CAKI-1, > 100 µM (inactive); in the assay with Hs-578T it was > 100 µM (inactive); in the assay with EKVX it was > 100 µM (inactive); in the assay with SR, > 100 µM (inactive); with NCI-H23, > 100 µM (inactive). In addition, the GI50 in the assay on A498, in the assay with SW-620, with COLO 205, in the assay on K562, in the assay on SNB-19 and in the assay on UACC-257 was > 100 µM (inactive) throughout.
Regarding `CC(=O)NC1(C)CCC(C(C)(C)NC(C)=O)CC1` (stereo not drawn), the GI50 with A549, in the assay with OVCAR-5, with DU-145, with SF-295, in the assay on NCI/ADR-RES and in the assay on OVCAR-4 was > 100 µM (inactive) each time. Further, the GI50 in the assay with HCT-15 is over 100 µM; with CAKI-1 it was > 100 µM (inactive); in the assay with Hs-578T it was > 100 µM (inactive); in the assay on EKVX it was > 100 µM (inactive); in the assay on SR, > 100 µM (inactive); in the assay on NCI-H23, > 100 µM (inactive). In addition, the GI50 with A498, in the assay with SW-620, in the assay with COLO 205, in the assay with K562, with SNB-19 and with UACC-257 was > 100 µM (inactive) throughout.
`COC(=O)[C@@H](NC(=O)N(Cc1ccccc1)C[C@H](CC(C)C)NC(=O)[C@@H](NC(=O)OC(C)(C)C)C(C)C)C(C)C`: the GI50 in the assay on A549, in the assay on OVCAR-5, in the assay on DU-145, with SF-295, with NCI/ADR-RES and in the assay on OVCAR-4 was > 100 µM (inactive) in each case. In addition, the GI50 is over 100 µM with HCT-15; > 100 µM (inactive) in the assay on CAKI-1; 88.1 µM (inactive) in the assay with Hs-578T; > 100 µM (inactive) in the assay on EKVX; > 100 µM (inactive) in the assay with SR; > 100 µM (inactive) in the assay with NCI-H23. The GI50 in the assay with A498, in the assay on SW-620, in the assay with COLO 205, in the assay with K562, in the assay with SNB-19 and with UACC-257 was > 100 µM (inactive) in each case.
`CN(C)CCCNC(=O)CCNC(=O)c1cc(NC(=O)c2cc(NC(=O)c3cc(NC(=O)c4nc(NC(=O)CCCNC(=O)c5cc(NC(=O)c6cc(NC(=O)c7cc(NC(=O)c8nccn8C)cn7C)cn6C)cn5C)cn4C)cn3C)cn2C)cn1C`: the GI50 with A549, in the assay with OVCAR-5, in the assay with DU-145, in the assay on SF-295, with NCI/ADR-RES and with OVCAR-4 was > 100 µM (inactive) throughout. Moreover, the GI50 with HCT-15 was over 100 µM; in the assay on CAKI-1, > 100 µM (inactive); with Hs-578T, > 100 µM (inactive); in the assay on EKVX it was > 100 µM (inactive); in the assay on SR, > 100 µM (inactive); in the assay on NCI-H23 it was > 100 µM (inactive). For the same compound, the GI50 with A498, with SW-620, with COLO 205, with K562, with SNB-19 and in the assay on UACC-257 was > 100 µM (inactive) in each case.
Turning to `C=CCN1C(=O)/C(=C/c2ccc(C)cc2)NC1=S`, the GI50 is 76.4 µM (inactive) with A549; > 100 µM (inactive) in the assay on OVCAR-5; > 100 µM (inactive) with DU-145; 75 µM (inactive) in the assay with SF-295; 81.7 µM (inactive) in the assay with NCI/ADR-RES; 57 µM (inactive) in the assay on OVCAR-4. The GI50 in the assay on HCT-15 is over 100 µM; in the assay with CAKI-1, > 100 µM (inactive); in the assay on Hs-578T it was > 100 µM (inactive); with EKVX, 37.8 µM (inactive); in the assay with SR, 85.9 µM (inactive); in the assay with NCI-H23, 57.5 µM (inactive). The GI50 in the assay with A498 was 47 µM (inactive); in the assay on SW-620 it was > 100 µM (inactive); with COLO 205, 63.5 µM (inactive); in the assay on K562, 41.9 µM (inactive); in the assay on SNB-19, > 100 µM (inactive); with UACC-257, 43.6 µM (inactive).
As to `O=C(O)CN1CCNCCN(CC(=O)O)CCNCC1`, the GI50 in the assay on A549 is 5.57 µM (inactive); in the assay with OVCAR-5, > 85.1 µM (inactive); in the assay on DU-145, > 100 µM (inactive); with SF-295 it was > 87.7 µM (inactive); in the assay with NCI/ADR-RES, > 100 µM (inactive); with OVCAR-4 it was > 100 µM (inactive). The GI50 in the assay with HCT-15 was 9.29 µM; in the assay with CAKI-1, > 100 µM (inactive); with Hs-578T, > 24.1 µM (inactive); with EKVX, > 60.3 µM (inactive); in the assay with SR, 5.14 µM (inactive); in the assay on NCI-H23, 44.4 µM (inactive). Besides, the GI50 in the assay on A498 is 50 µM (inactive); in the assay on SW-620 it was 4.2 µM (inactive); in the assay on COLO 205, 6.64 µM (inactive); with K562, 3.85 µM (inactive); in the assay on SNB-19, > 100 µM (inactive); in the assay on UACC-257, > 73.3 µM (inactive).
Turning to `C[C@]12CC[C@H]3[C@@H](CCC4=CC(=O)C=C[C@@]43OC(=O)C(F)(F)F)[C@@H]1CCC2=O`, the GI50 with A549 was > 52.6 µM (inactive); in the assay with OVCAR-5, > 100 µM (inactive); in the assay on DU-145, > 100 µM (inactive); in the assay with SF-295 it was > 100 µM (inactive); in the assay with NCI/ADR-RES it was > 65.8 µM (inactive); in the assay with OVCAR-4, > 100 µM (inactive). Further, the GI50 with HCT-15 was over 100 µM; in the assay with CAKI-1 it was > 100 µM (inactive); in the assay with Hs-578T, > 100 µM (inactive); in the assay with EKVX, > 100 µM (inactive); in the assay on SR it was > 100 µM (inactive); in the assay with NCI-H23 it was > 100 µM (inactive). Also, the GI50 in the assay on A498 was > 100 µM (inactive); with SW-620, > 100 µM (inactive); in the assay on COLO 205, > 100 µM (inactive); with K562 it was > 100 µM (inactive); in the assay on SNB-19 it was > 33.6 µM (inactive); with UACC-257, > 100 µM (inactive).
